Test results reported in PubChem BioAssay AID246 (DTP/NCI, 2004).
“And” between values parts separate entries of the source, which are not always exact repeats. Identical values can stand only once. Toxic doses and inconclusive results are not listed. Rule for the calls: active = survival T/C of 150% or more; inactive = T/C below 125% in these data. Numbered stars: 1 amine (or outer) side, 2 acyl side, 3 side chain; on linkers, the order of the positions; unused ones are H or OH. Bridge positions count the residues as written; N and C are the ends. Square brackets hold non-standard residues; d marks the D form. Peptide text beside a SMILES is read from it. I, II: the chains in the order shown. Actinocin(9to1) = Cc1c2oc3c(C)ccc(C(=O)[*:1])c3nc-2c(C(=O)[*:2])c(N)c1=O; aThr = C[C@H](O)[C@H](N)C(=O)O; NMeV = CN[C@H](C(=O)O)C(C)C; Sar = CNCC(=O)O

System: BDF1 mice, P1081 chloroleukemia ip, survival T/C
Experiment: NCI In Vivo Anticancer Drug Screen. Data for tumor model P1081 Chloroleukemia (intraperitoneal) in B6D2F1 (BDF1) mice
Details: endpoint: mean survival time, higher = longer survival
Method: The antitumor activity of compounds was measured in mice bearing transplantable tumors. Survival or tumor size were measured and the results are expressed as the measurement made in the treated group (T) divided by the measurement made in the vehicle treated control group (C). The tumor model used in this assay is P1081 Chloroleukemia (intraperitoneal) in B6D2F1 (BDF1) mice

[1] = dose: 8.0 mg/kg/injection, schedule: Q01DX010 (ip), vehicle: saline
[2] = dose: 16.0 mg/kg/injection, schedule: Q01DX010 (ip), vehicle: saline
[3] = dose: 32.0 mg/kg/injection, schedule: Q01DX010 (ip), vehicle: saline
[4] = dose: 64.0 mg/kg/injection, schedule: Q01DX010 (ip), vehicle: saline
[5] = dose: 9.4 mg/kg/injection, schedule: Q01DX Z (ip), vehicle: carboxymethylcellulose (CMC)
[6] = dose: 10.0 mg/kg/injection, schedule: Q01DX010 (ip), vehicle: saline
[7] = dose: 20.0 mg/kg/injection, schedule: Q01DX010 (ip), vehicle: saline
[8] = dose: 40.0 mg/kg/injection, schedule: Q01DX010 (ip), vehicle: saline

Measured: T/C

c1ccc(CNc2ncnc3[nH]ncc23)cc1
inactive: dose: 0.98 mg/kg/injection, schedule: Q01DX Z (ip), vehicle: carboxymethylcellulose (CMC) 93 % of control | dose: 1.95 mg/kg/injection, schedule: Q01DX Z (ip), vehicle: carboxymethylcellulose (CMC) 94 % of control | dose: 3.9 mg/kg/injection, schedule: Q01DX Z (ip), vehicle: carboxymethylcellulose (CMC) 93 % of control | dose: 7.8 mg/kg/injection, schedule: Q01DX Z (ip), vehicle: carboxymethylcellulose (CMC) 112 % of control | [1] 111 % of control | [2] 111 % of control and 116 % of control | [3] 111 % of control and 122 % of control | [4] 111 % of control

COc1cc2c(c(OC)c1OC)-c1ccc(N)c(=O)cc1[C@@H](NC(C)=O)CC2
inactive: dose: 2.0 mg/kg/injection, schedule: Q01DX010 (ip), vehicle: saline 100 % of control
active: dose: 0.5 mg/kg/injection, schedule: Q01DX010 (ip), vehicle: saline 177 % of control | dose: 1.0 mg/kg/injection, schedule: Q01DX010 (ip), vehicle: saline 188 % of control and 250 % of control

Nc1nc(SCc2ccccc2)c2[nH]cnc2n1
inactive: dose: 4.7 mg/kg/injection, schedule: Q01DX Z (ip), vehicle: carboxymethylcellulose (CMC) 91 % of control | [1] 110 % of control and 116 % of control | [5] 90 % of control | [2] 116 % of control and 105 % of control | dose: 18.75 mg/kg/injection, schedule: Q01DX Z (ip), vehicle: carboxymethylcellulose (CMC) 100 % of control | [3] 110 % of control and 122 % of control | [4] 105 % of control

Cn1cnc([N+](=O)[O-])c1Sc1nc(N)nc2nc[nH]c12
inactive: dose: 0.25 mg/kg/injection, schedule: Q01DX Z (ip), vehicle: carboxymethylcellulose (CMC) 90 % of control | dose: 0.5 mg/kg/injection, schedule: Q01DX Z (ip), vehicle: carboxymethylcellulose (CMC) 110 % of control | dose: 1.0 mg/kg/injection, schedule: Q01DX Z (ip), vehicle: carboxymethylcellulose (CMC) 111 % of control | dose: 2.0 mg/kg/injection, schedule: Q01DX Z (ip), vehicle: carboxymethylcellulose (CMC) 110 % of control | dose: 8.0 mg/kg/injection, schedule: Q01DX Z (ip), vehicle: carboxymethylcellulose (CMC) 86 % of control

Cc1c2oc3c(C)ccc(C(=O)N[C@@H]4C(=O)N[C@H](C(C)C)C(=O)N5CCC[C@H]5C(=O)N(C)CC(=O)N(C)[C@@H](C(C)C)C(=O)O[C@H]4C)c3nc-2c(C(=O)N[C@@H]2C(=O)N[C@H](C(C)C)C(=O)N3CCC[C@H]3C(=O)N(C)CC(=O)N(C)[C@@H](C(C)C)C(=O)O[C@H]2C)c(N)c1=O (I: [aThr][dV]P[Sar][NMeV] / II: [aThr][dV]P[Sar][NMeV]; ester I:1-I:C, II:1-II:C; linker I:N-II:N via Actinocin(9to1))
inactive: dose: 0.7 micrograms/kg/injection, schedule: Q01DX Z (ip), vehicle: saline 103 % of control | dose: 1.5 micrograms/kg/injection, schedule: Q01DX Z (ip), vehicle: saline 94 % of control | dose: 6.2 micrograms/kg/injection, schedule: Q01DX Z (ip), vehicle: saline 110 % of control | dose: 25.0 micrograms/kg/injection, schedule: Q01DX Z (ip), vehicle: saline 119 % of control | dose: 50.0 micrograms/kg/injection, schedule: Q01DX Z (ip), vehicle: saline 104 % of control | dose: 100.0 micrograms/kg/injection, schedule: Q01DX010 (ip), vehicle: other 105 % of control | dose: 100.0 micrograms/kg/injection, schedule: Q01DX Z (ip), vehicle: saline 102 % of control
active: dose: 12.5 micrograms/kg/injection, schedule: Q01DX010 (ip), vehicle: other 155 % of control | dose: 25.0 micrograms/kg/injection, schedule: Q01DX010 (ip), vehicle: other 190 % of control and 205 % of control | dose: 50.0 micrograms/kg/injection, schedule: Q01DX010 (ip), vehicle: other 180 % of control and 245 % of control

C[C@]12CC[C@H](OC3OC(CO)C(O)C(O)C3O)C[C@H]1CC[C@@H]1[C@@H]2CC[C@]2(C)[C@@H](C3=CCOC3=O)CC[C@]12O (stereo partly specified)
inactive: dose: 0.5 mg/kg/injection, schedule: Q01DX Z (ip), vehicle: saline 94 % of control | dose: 1.0 mg/kg/injection, schedule: Q01DX Z (ip), vehicle: saline 96 % of control | dose: 31.0 micrograms/kg/injection, schedule: Q01DX Z (ip), vehicle: saline 101 % of control | dose: 63.0 micrograms/kg/injection, schedule: Q01DX Z (ip), vehicle: saline 98 % of control | dose: 125.0 micrograms/kg/injection, schedule: Q01DX Z (ip), vehicle: saline 104 % of control | dose: 250.0 micrograms/kg/injection, schedule: Q01DX Z (ip), vehicle: saline 104 % of control | dose: 500.0 micrograms/kg/injection, schedule: Q01DX Z (ip), vehicle: saline 110 % of control

O=C(Nc1ccc(C2=NCCN2)cc1)c1cccc(C(=O)Nc2ccc(C3=NCCN3)cc2)c1
active: [5] 152 % of control | [2] 300 % of control and 333 % of control | dose: 18.8 mg/kg/injection, schedule: Q01DX Z (ip), vehicle: carboxymethylcellulose (CMC) 175 % of control | [3] 300 % of control and 333 % of control | dose: 37.5 mg/kg/injection, schedule: Q01DX Z (ip), vehicle: carboxymethylcellulose (CMC) 206 % of control | [4] 294 % of control and 300 % of control | dose: 75.0 mg/kg/injection, schedule: Q01DX Z (ip), vehicle: carboxymethylcellulose (CMC) 209 % of control | dose: 128.0 mg/kg/injection, schedule: Q01DX010 (ip), vehicle: saline 200 % of control
inactive: dose: 2.35 mg/kg/injection, schedule: Q01DX Z (ip), vehicle: water 106 % of control | dose: 4.7 mg/kg/injection, schedule: Q01DX Z (ip), vehicle: water 96 % of control | dose: 150.0 mg/kg/injection, schedule: Q01DX Z (ip), vehicle: water 100 % of control

C[C@@H]1C[C@@H]([C@H](O)CC2CC(=O)NC(=O)C2)C(=O)[C@@H](C)C1
inactive: dose: 0.39 mg/kg/injection, schedule: Q01DX Z (ip), vehicle: water 89 % of control | dose: 3.12 mg/kg/injection, schedule: Q01DX Z (ip), vehicle: water 102 % of control | dose: 5.0 mg/kg/injection, schedule: Q01DX010 (ip), vehicle: saline 86 % of control and 100 % of control | [6] 110 % of control and 100 % of control | [7] 115 % of control and 100 % of control | dose: 25.0 mg/kg/injection, schedule: Q01DX Z (ip), vehicle: water 93 % of control | [8] 90 % of control

O=c1[nH]cc(F)c(=O)[nH]1
active: [6] 161 % of control and 165 % of control | dose: 12.5 mg/kg/injection, schedule: Q01DX Z (ip), vehicle: saline 150 % of control | [7] 200 % of control and 230 % of control
inactive: dose: 1.56 mg/kg/injection, schedule: Q01DX Z (ip), vehicle: saline 99 % of control | [8] 110 % of control and 94 % of control | dose: 50.0 mg/kg/injection, schedule: Q01DX Z (ip), vehicle: saline 108 % of control | dose: 100.0 mg/kg/injection, schedule: Q01DX Z (ip), vehicle: saline 96 % of control

Cc1cc2nc3c(=O)[nH]c(=O)nc-3n(CC(O)C(O)C(O)C(O)CO)c2cc1C (stereo unspecified)
inactive: dose: 50.0 mg/kg/injection, schedule: Q01DX010 (ip), vehicle: saline 88 % of control and 100 % of control | dose: 100.0 mg/kg/injection, schedule: Q01DX010 (ip), vehicle: saline 88 % of control and 90 % of control | dose: 200.0 mg/kg/injection, schedule: Q01DX010 (ip), vehicle: saline 90 % of control and 100 % of control | dose: 400.0 mg/kg/injection, schedule: Q01DX010 (ip), vehicle: saline 100 % of control

N[C@@H](Cc1ccc(N(CCCl)CCCl)cc1)C(=O)O
active: dose: 0.31 mg/kg/injection, schedule: Q01DX Z (ip), vehicle: saline 159 % of control | dose: 0.63 mg/kg/injection, schedule: Q01DX Z (ip), vehicle: saline 206 % of control | dose: 1.25 mg/kg/injection, schedule: Q01DX Z (ip), vehicle: saline 193 % of control | dose: 2.5 mg/kg/injection, schedule: Q01DX Z (ip), vehicle: saline 229 % of control | dose: 5.0 mg/kg/injection, schedule: Q01DX Z (ip), vehicle: saline 217 % of control
inactive: dose: 10.0 mg/kg/injection, schedule: Q01DX Z (ip), vehicle: saline 107 % of control

CCCNc1ncnc2[nH]ncc12
inactive: dose: 3.13 mg/kg/injection, schedule: Q01DX010 (ip), vehicle: saline 100 % of control | dose: 5.0 mg/kg/injection, schedule: Q01DX Z (ip), vehicle: water 90 % of control | dose: 6.25 mg/kg/injection, schedule: Q01DX010 (ip), vehicle: saline 100 % of control | dose: 10.0 mg/kg/injection, schedule: Q01DX Z (ip), vehicle: water 93 % of control | dose: 20.0 mg/kg/injection, schedule: Q01DX Z (ip), vehicle: water 102 % of control | dose: 25.0 mg/kg/injection, schedule: Q01DX010 (ip), vehicle: saline 90 % of control
